Results as given in patent publication US6448255B1, “Imidazo-isoquinolin-5-one derivatives, pyrimido-isoquinolin-6-one derivatives and imidazo-naphthyridin-5-one derivatives” (Wyeth, priority 2000, dated 2002).

Assays:
[1] = tested on: blood serum HDL cholesterol; assay: determination of HDL cholesterol in serum of cholesterol/cholic acid-fed rats; type: in vivo, Male Sprague-Dawley rats; conditions: Dose 100 mg/kg/day mixed in diet, 8 days; rats fed chow with 0.25% cholic acid and 1.0% cholesterol; serum HDL cholesterol by FPLC
Protocol: The ability of the compounds of this invention to increase blood serum HDL levels was established by the following standard experimental procedure for determination of HDL cholesterol:
Male Sprague-Dawley rats weighing 200-225 g were housed two per cage and fed Purina Rodent Chow Special Mix 5001-S supplemented with 0.25% cholic acid and 1.0% cholesterol and water ad libitum for 8 days. Each test substance was administered to a group of six rats fed the same diet with the test diet mixed in as 0.005-0.1% of the total diet. Body weight and food consumption were recorded prior to diet administration and at termination. Typical doses of the test substances were 5-100 mg/kg/day.
At termination, blood was collected from anesthetized rats and the serum was separated by centrifugation. Total serum cholesterol was assayed using the Sigma Diagnostics enzymatic kit for the determination of cholesterol, Procedure No. 352, modified for use with ninety-six well microtiter plates. After reconstitution with water the reagent contains 300 U/I cholesterol oxidase, 100 U/I cholesterol esterase, 1000 U/I horse radish peroxidase, 0.3 mmoles/l 4-aminoantipyrine and 30.0 mmoles/l p-hydroxybenzenesulfonate in a pH 6.5 buffer. In the reaction cholesterol was oxidized to produce hydrogen peroxide which was used to form a quinoneimine dye. The concentration of dye formed was measured spectrophotometrically by absorbency at 490 nm after incubation at 25° C. for 30 minutes. The concentration of cholesterol was determined for each serum sample relative to a commercial standard from Sigma.
HDL cholesterol concentrations in serum were determined by separation of lipoprotein classes by fast protein liquid chromatography (FPLC) by a modification of the method of Kieft et al., J. Lipid Res., 32 (1991) 859-866. 25 ul of serum was injected onto Superose 12 and Superose 6 (Pharmacia), in series, with a column buffer of 0.05 M Tris (2-amino-2-hydroxymethyl-1,3-propanediol) and 0.15 M sodium chloride at a flow rate of 0.5 ml/min. The eluted sample was mixed on line with Boehringer-Mannheim cholesterol reagent pumped at […]. The combined eluents were mixed and incubated on line through a knitted coil (Applied Biosciences) maintained at a temperature of 45 C. The eluent was monitored by measuring absorbence at 490 nm and gave a continuous absorbence signal proportional to the cholesterol concentration. The relative concentration of each lipoprotein class was calculated as the percent of total absorbence. HDL cholesterol concentration, in serum, was calculated as the percent of total cholesterol as determined by FPLC multiplied by the total serum cholesterol concentration.

Row | Compound | melting point [°C] | HDL Cholesterol Level Increase (%) [1] [%]
1 | CC1(C)CN2C(=O)c3ccccc3C(O)(c3ccc(Cl)cc3)C2=N1 (stereo not drawn) [Example 10, 10-(4-Chlorophenyl)-10-hydroxy-2,2-dimethyl-2,10-dihydroimidazo[1,2-b]isoquinolin-5(3H)-one] | 181 to 183 | –
2 | O=C1c2ccccc2C(O)(c2ccccc2)C2=NCCN12 (stereo not drawn) [Example 12, 10-Hydroxy-10-phenyl-2,10-dihydroimidazo[1,2-b]isoquinolin-5(3H)-one] | 263 to 265 | –
3 | O=C1c2ccccc2C(O)(c2ccc(Cl)cc2)C2=NCCCN12 (stereo not drawn) [Example 8, 11-(4-Chlorophenyl)-11-hydroxy-2,3,4,11-tetrahydro-6H-pyrimido[1,2-b]isoquinolin-6-one] | 128 to 130 | –
4 | C[C@H]1CN2C(=O)c3ccccc3[C@@](O)(c3ccc(F)cc3)C2=N1 [Example 6, (2S,10S)-10-(4-Fluorophenyl)-10-hydroxy-2-methyl-2,10-dihydrolmidazo[1,2-b]isoquinolin-5(3H)-one] | – | 38
5 | CC1(C)CN2C(=O)c3ccccc3C(O)(c3ccccc3)C2=N1 (stereo not drawn) [Example 1, 10-Hydroxy-2,2-dimethyl-10-phenyl-2,10-dihydroimidazo[1,2-b]isoquinolin-5(3H)-one] | 186 to 188 | 55
6 | CC1(C)CN2C(=O)c3ncccc3C(O)(c3ccc(Cl)cc3)C2=N1 (stereo not drawn) [Example 7, 10-(4-Chlorophenyl)-10-hydroxy-2,2-dimethyl-2,10-dihydroimidazo[2,1-g][1,7]naphthyridin-5(3H)-one] | 257 to 260 | 49

Now from value to compound, other results behind:

Row | melting point [°C] | Compound | HDL Cholesterol Level Increase (%) [1] [%]
7 | 229 to 232 | C[C@@H]1CN2C(=O)c3ccccc3[C@@](O)(c3ccc(F)cc3)C2=N1 [Example 5, (2R, 10S)-10-(4-Fluorophenyl)-10-hydroxy-2-methyl-2,10-dihydroimidazo[1,2-b]isoquinolin-5(3H)-one] | 105
8 | 235 to 237 | O=C1c2ccccc2C(O)(c2ccc(Cl)cc2)C2=NCCN12 (stereo not drawn) [Example 11, 10-(4-Chlorophenyl)-10-hydroxy-2,10-dihydroimidazo[1,2-b]isoquinolin-5(3H)-one] | –
9 | 126 to 128 | O=C1c2ccccc2C(O)(c2ccc(F)cc2)C2=NCCCN12 (stereo not drawn) [Example 2, 11-(4-Fluorophenyl)-11-hydroxy-2,3,4,11-tetrahydro-6H-pyrimido[1,2-b]isoquinolin-6-one] | 22
10 | 212 to 215 | O=C1c2ccccc2C(O)(c2ccc(Br)cc2)C2=NCCN12 (stereo not drawn) [Example 13, 10-(4-Bromophenyl)-10-hydroxy-2,10-dihydroimidazo[1,2-b]isoquinolin-5(3H)-one] | –
11 | 168 to 170 | CC1(C)CN2C(=O)c3ccccc3C(O)(c3ccc(F)cc3)C2=N1 (stereo not drawn) [Example 3, 10-(4-Fluorophenyl)-10-hydroxy-2,2-dimethyl-2,10-dihydroimidazo[1,2-b]isoquinolin-5(3H)-one] | 90
12 | 203 to 205 | O=C1c2ccccc2C(O)(c2ccc(F)cc2)C2=NC3CCCCC3N12 (stereo not drawn) [Example 4, 6-(4-Fluorophenyl)-6-hydroxy-1,3,4,4a,6,12a-hexahydrobenzimidazo[1,2-b]isoquinolin-11(2H)-one] | 21
